# Several values for one entry are separate records, joined by “and”; a condition that tells them apart may be missing. Identical values can stand only once. Entries after “also recorded” stand apart in the source; their conditions may differ.
# Key:
# [1] = Hydrazone reaction rates of competitors with model reactants, UV spectroscopy; format: physicochemical; details: for k1 (forward reaction rate) / k−1 (×10^−4) (reverse reaction rate): 50 μM competitor and 50 μM model reactant (BZA or HydAA), saline solution, 25° C., mean (standard deviation), n = 4; for k−1 / k1: unit not given
# Protocol: To quantify the extent that side groups impact reaction parameters, the forward (k1) and reverse (k−1) reaction rates were measured for each competitor at 50 μM (Table 2). For these reactions, the complementary reactant was chosen to be 50 μM of either benzaldehyde (BZA) or hydrazinoacetic acid (HydAA), because they are the crosslinking functionalities of HELP, and can provide key insight into DCC interactions without the complexity of the full HA and ELP polymers. (Winne, Leibler et al. 2019) The formation of a hydrazone bond was observed via absorbance with UV spectroscopy and converted to a concentration over time. An analytical solution to a second order reaction rate, assuming equal concentrations of reactants, was fit to the concentration as a function of time. (Dirksen, Dirksen et al. 2006, Mckinnon, Domaille et al. 2014)
# [2] = Theoretical half-time to equilibrium of the competitor reaction; details: 10 mM; calculated from kinetic reaction parameters
# Protocol: Using the kinetic reaction parameters, the theoretical half-time (t1/2) to was calculated to reach equilibrium of the competitor reaction at a concentration of 10 mM (FIG. 12C). […] This is consistent with the rationale that Butanal increases the gelation time because it is capable of rapidly reacting with the crosslinking sites, preventing them from participating in gelation. […] Using a simplified half-time model of just the competitor reaction, the user is able to qualitatively capture the measured gelation times of the complex competitor and crosslinking hydrogel system.
# [3] = Gelation time of HELP hydrogel with competitor; format: physicochemical; details: for gelation time: 0 mM 42.3±5.5 s; for effect on gelation time of HELP hydrogel: FIG. 12A, B, n=3-4, one-way ANOVA
# Protocol: The HELP hydrogel composition was 2 wt % ELP-Hydrazine (fully modified) and 1 wt % HA-Benzaldehyde (30% modified).
# Based upon the observed and predicted effect of the competitor on hydrogel modulus, it was reasoned that transient disruption of crosslinking would alter gelation kinetics. The competitor kinetics delays the time to reach a percolated polymer network in a dose-dependent manner. Addition of a high concentration (20 mM) of a relatively slow reacting competitor Keq competitor (HydAA, k1˜10^−1, Keq˜ 10^3) results in a modest and nonsignificant increase in gelation time (tg=48.3±3.1 s), though it softened the hydrogel modulus from ˜3 kPa to 1.3 kPa. (FIG. 12A). […] The difference in gelation times can be attributed to the difference in forward reaction rate and equilibrium constants of the competitors, which both differ by over 2 orders of magnitude between Butanal and HydAA.
# [4] = Storage modulus of HELP hydrogel with competitor, oscillatory shear rheology; format: physicochemical; details: for HELP modulus: 0 mM control ~3 kPa; for storage modulus (G) of HELP hydrogel, dose response: FIG. 11C, D, increasing competitor concentration, n=3; for fold change in modulus: HELP system, relative to no competitor
# Protocol: The term “storage modulus” as used herein may be used interchangeably with the term “stiffness”. Storage modulus refers to the ratio of the elastic stress to strain and indicates a material's ability to store energy. The storage modulus may be measured using oscillatory shear rheology
# The storage modulus of the HELP hydrogels were measured using oscillatory shear rheology.
# The HELP hydrogel composition was 1 wt % ELP-Hydrazine (fully modified) and 1 wt % HA-Aldehyde (12% modified). Hydrazinoacetic acid was added to HELP hydrogels in four separate final concentrations, 0 mM, 5 mM, 10 mM and 20 mM and the storage modulus was measured over the course of 30 minutes.
# The catalyst agent was 2-(Aminomethyl)benzimidazole and the competitor agent was butyraldehyde. The competitor agent was added at HELP hydrogels at a final concentration of 10 mM and the catalyst agent was added to a final concentration of 0.10 and 25 mM. The composition of the HELP hydrogel was 2 wt % ELP-Hydrazine (fully modified) and 1 wt % HA-Benzaldehyde (30% modified).
# To initially assess the impact of a competitor on hydrogel stiffness, it was proposed that the effect on crosslinking density will depend upon the relative strength of the two competing reactions: (1) crosslinking-site and competitor and (2) crosslinking reaction (FIG. 11A). It was predict that as the relative strength of the competitor reaction (Keq^1) to crosslinking reaction (Keq^2) increases, there will be a greater disruption of crosslinks. To validate this, the impact of competitor Keq on the modulus of HELP formed from precursor solutions of HA-BZA and ELP-HYD at a 1:1 BZA to HYD ratio was determined. To minimize off-target reactions, competitors were added to the precursors solution that has the same functionality, i.e., hydrazine competitors added to ELP-HYD, aldehyde competitors added to HA-BZA. At 10 mM of competitor, which represents a ratio of 4:3 of competitor to crosslinking sites, all competitors led to a significant decrease in the HELP modulus compared to the 0 mM control (FIG. 11B). Based upon the hypothesis that the relative strength of the reactions will dictate crosslinking disruption, a larger decrease in modulus with competitors that result in an aromatic hydrazone (Keq^1/Keq^2˜10^0), double aromatic hydrazone (Keq^1/Keq^2˜10^1) and alkyl hydrazone (Keq^1/Keq^2˜10^2) should be seen.
# The hydrogel modulus response to increasing concentrations of competitors was next examined. The decrease in modulus is dependent upon the concentration of the competitor. To examine this dose-dependent response, the competitors with the lowest (HydAA, aromatic hydrazone) and highest (Butanal, alkyl hydrazone) Keq were selected. Increasing the concentration of HydAA from 5, 10, and 20 mM further reduced the crosslinking density and modulus (2.3, 1.8, 1.3 kPa) in a concentration dependent manner (FIG. 11C). A similar response with Butanal was seen as we increase the concentration from 5 to 10 mM (FIG. 11D).
# [5] = HELP hydrogel homogeneity by fluorescent dye distribution; format: physicochemical; details: 10 mM competitor vs rapidly gelling HELP without competitor; stiff (~3.5 kPa) HELP
# Protocol: We propose that by using a competitor to increase gelation times, we can overcome the limitations of rapidly gelling hydrazone-crosslinked HELP. We compared the macroscopic structure of a stiff (˜3.5 kPa) HELP formulation with and without Butanal. Without a competitor, the hydrogel rapidly gelled, resulting in a heterogenous hydrogel with nonuniform distribution of polymer. However, addition of 10 mM Butanal allowed for adequate mixing of the polymers and a homogenous hydrogel (FIG. 12E). To quantitatively evaluate the heterogeneity of HELP hydrogels with or without a competitor, we added a fluorescent dye and compared the spatial distribution of the fluorescent signal. […] By using a rapidly reaction competitor to slow down gelation kinetics, we have developed a solution to the challenge of inhomogeneous DCC hydrogels, and produced a uniform HELP hydrogel.
# [6] = 10 mM competitor, HA-BZA and ELP-HYD at 1:1 BZA to HYD
Compound,k1 (forward reaction rate) [1],k−1 (×10^−4) (reverse reaction rate) [1],theoretical half-time (t1/2) to reach equilibrium of the competitor reaction [2],k−1 [1],gelation time ([3]; 10 mM competitor),effect on gelation time of HELP hydrogel [3],HELP modulus ([4]; 5 mM competitor),"HELP modulus [4, 6]","storage modulus (G) of HELP hydrogel, dose response [4]",fold change in modulus [4],k1 [1],further results
"O=Cc1ccccc1 [Benzaldehyde, benzaldehyde]",0.276 (0.070) M^−1 s^−1,1.71 (0.280) ×10^−4 s^−1,4.23 ± 1.33 min,,,,,,,,,
"CCCC=O [Butyraldehyde, butyraldehyde]",59.9 (5.49) M^−1 s^−1,4.49 (1.07) ×10^−4 s^−1,0.0265 ± 0.00233 min,4.49±1.07×10^−4,92.3 ± 5.1 s,significantly increases gelation time in a dose-dependent manner,1.75 kPa,0.29±0.2 kPa,dose-dependent decrease,0.1 fold,,"k1 ([1]; listed as Butanal): 59.9±5.49; k1 ([1]; listed as Butunal): ~10^1; increase of gelation time ([3]; 5 mM competitor): ~1.7 fold; gelation time ([3]; 5 mM competitor): 74.8 ± 10.0 s; HELP hydrogel formation ([4]; 20 mM competitor (2.7× crosslinking sites), listed as Butanal): disrupt formation of a hydrogel; also recorded: inhibition of HELP gel formation; variance of fluorescence intensity (hydrogel heterogeneity) [5]: significantly lower variance"
"NNc1ccc(C(=O)O)cc1 [Hydrazinobenzoic acid, 4-hydrazinobenzoic acid]",2.10 (0.40) M^−1 s^−1,1.00 (0.077) ×10^−4 s^−1,,1.00±0.077×10^−4,,,,0.86±0.04 kPa,,,2.10±0.400,
NCc1nc2ccccc2[nH]1 [2-(Aminomethyl)benzimidazole],,,,,,,,,,,,"storage modulus of HELP hydrogels with catalyst and competitor ([4]; FIG. 9, catalyst 0.10 and 25 mM with 10 mM butyraldehyde, 24 hours diffusion into preformed hydrogel, 2 wt % ELP-Hydrazine, 1 wt % HA-Benzaldehyde (30% modified)): reduced in a dose-dependent manner"
"NNCC(=O)O [Hydrazinoacetic acid, hydrazinoacetic acid]",0.276 (0.070) M^−1 s^−1,1.71 (0.280) ×10^−4 s^−1,4.23 ± 1.33 min,~10^−4,did not significantly impact gelation,does not significantly increase,2.3 kPa,,dose-dependent decrease,0.6 fold,~10^−1,"gelation time (tg) ([3]; 20 mM HydAA (slow-reacting competitor)): 48.3 ± 3.1 s; gelation time, dose response ([3]; FIG. 4, 0, 5, 10 mM, 2 wt % ELP-Hydrazine, 1 wt % HA-Benzaldehyde (30% modified)): increased the gelation time in a dose dependent manner; increase of gelation time ([3]; FIG. 4, 10 mM, 2 wt % ELP-Hydrazine, 1 wt % HA-Benzaldehyde (30% modified)): approximately 30 seconds; HELP modulus ([4]; 10 mM competitor, HA-BZA and ELP-HYD at 1:1 BZA to HYD, listed as HydAA): 1.75±0.3 kPa and 1.8 kPa and 1.75 kPa; HELP modulus ([4]; 20 mM competitor): 1.3 kPa; storage modulus of HELP hydrogels, dose response ([4]; FIG. 2, 0, 5, 10 and 20 mM): reduced the storage modulus in a dose dependent manner; time to reach the plateau storage modulus ([4]; FIG. 3, 1 wt % ELP-Hydrazine, 1 wt % HA-Aldehyde (12% modified), 0, 5, 10, 20 mM): increased the time to reach the plateau storage modulus; storage modulus of HELP hydrogels over time ([4]; FIG. 3, 1 wt % ELP-Hydrazine, 1 wt % HA-Aldehyde (12% modified), 0, 5, 10, 20 mM, 30 minutes): reduced the storage modulus of HELP hydrogels in a dose dependent manner"
"NNCCO [Hydrazinoethanol, 2-hydrazinoethanol]",0.690 (0.301) M^−1 s^−1,1.12 (0.469) ×10^−4 s^−1,,~10^−4,,,,,,,~10^−1,

# From patent publication US20250290045A1, “SMALL MOLECULES AND METHODS FOR MODULATING TEMPORAL CONTROL OF GELATION AND HYDROGEL MECHANICS” (The Board of Trustees of the Leland Stanford Junior …, priority 2022, published 2025)
